Experiments:
[1] = molecular target: T1, Apoptosis regulator Bcl-2 (Homo sapiens, UniProt P10415); test: Inhibition of biotin-linker-Beclin 1 BH3 peptide binding to human C-terminal 6His-tagged Bcl-2 (1 to 218 residues) expressed in Escherichia coli BL21 Star (DE3) pLysS measured after 3 hrs by AlphaLISA assay
[2] = Half life in ICR/CD-1 mouse liver microsomes at 2 uM preincubated for 5 mins followed by NADPH regenerating system addition by LC-MS/MS analysis; assay type: ADME, Microsome
[3] = molecular target: T1, Apoptosis regulator Bcl-2; test: Inhibition of biotin-linker-Bax BH3 peptide binding to human C-terminal 6His-tagged Bcl-2 (1 to 218 residues) expressed in Escherichia coli BL21 Star (DE3) pLysS measured after 3 hrs by AlphaLISA assay

T1 sequence (P10415 whole entry, the tested form may be a part): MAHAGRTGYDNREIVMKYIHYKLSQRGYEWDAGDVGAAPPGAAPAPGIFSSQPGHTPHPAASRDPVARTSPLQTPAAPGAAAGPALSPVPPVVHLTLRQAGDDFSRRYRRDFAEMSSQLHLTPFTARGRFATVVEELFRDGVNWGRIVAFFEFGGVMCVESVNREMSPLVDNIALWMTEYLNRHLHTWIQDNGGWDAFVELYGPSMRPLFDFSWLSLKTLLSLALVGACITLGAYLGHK

SMILES | IC50 [1] [nM] | half-life at 2 µM [2] [min] | IC50 [3] [nM]
CC(C)COC(=O)Nc1ccc(C2=NN(C(=O)c3ccc(Br)cc3)C(c3ccccc3)C2)cc1 (racemic) | 164 |  | 
CC(C)(C)OC(=O)Nc1ccc(C2=NN(C(=O)c3ccc(Br)cc3)C(c3cncs3)C2)cc1 (racemic) | 4360 |  | 
CC(C)(C)NC(=O)Nc1ccc(C2=NN(C(=O)c3ccc(Br)cc3)C(c3ccccc3)C2)cc1 (racemic) | 9220 |  | 
CC(C)(C)OC(=O)Nc1ccc(C2=NN(C(=O)c3ccc(Br)cc3)C(c3ccccc3)C2)cc1 (racemic) | 262 | 120 | 
CC(C)(C)OC(=O)Nc1ccc(C2=NN(C(=O)c3ccc(Br)cc3)C(c3nccs3)C2)cc1 (racemic) | 1610 |  | 
CC(C)C(=O)Oc1ccc(C2=NN(C(=O)c3ccc(Br)cc3)C(c3ccccc3)C2)cc1 (racemic) | 5450 |  | 
CS(=O)(=O)Nc1ccc(C2=NN(C(=O)c3ccc(C(F)(F)F)cc3)C(c3ccco3)C2)cc1 (racemic) | 2880 | 2.9 | 
CS(=O)(=O)Nc1ccc(C2=NN(C(=O)c3ccc(C#N)cc3)C(c3ccco3)C2)cc1 (racemic) | 7440 |  | 
COC(=O)c1ccc(C2=NN(C(=O)c3ccc(Br)cc3)C(c3ccccc3)C2)cc1 (racemic) | 1640 |  | 
CC(C)(C)OC(=O)Nc1ccc(C2=NN(C(=O)c3cccnc3)C(c3ccccc3)C2)cc1 (racemic) | 14500 |  | 
CC(C)(C)OC(=O)Nc1cccc(C2=NN(C(=O)c3ccc(Br)cc3)C(c3ccccc3)C2)c1 (racemic) | 11100 |  | 
CC(C)(C)OC(=O)Nc1ccc(C2=NN(C(=O)c3ccc(Br)cc3)C(c3ccoc3)C2)cc1 (racemic) | 3820 |  | 
CC(C)(C)OC(=O)Nc1ccc(C2=NN(C(=O)c3ccc(Br)cc3)C(c3ccccc3)C2)nc1 (racemic) | 372 |  | 
CC(C)(C)OC(=O)Nc1ccc(C2=NN(C(=O)c3ccc(Br)cc3)C(c3ccccc3)C2)cn1 (racemic) | 309 |  | 
CCOC(=O)Nc1ccc(C2=NN(C(=O)c3ccc(Br)cc3)C(c3ccccc3)C2)cc1 (racemic) | 32.8 |  | 6620
Cc1ccc(C(=O)N2N=C(c3ccc(NS(C)(=O)=O)cc3)CC2c2ccccc2Br)cc1 (configuration not stated) |  | 2.9 | 
CN(C)C(=O)c1ccc(C2=NN(C(=O)c3ccc(Br)cc3)C(c3ccccc3)C2)cc1 (racemic) | 5910 |  | 
Cc1ccc(C(=O)N2N=C(c3ccc(NS(C)(=O)=O)cc3)CC2c2ccco2)cc1 (racemic) | 15900 | 2.9 | > 10000
CS(=O)(=O)Nc1ccc(C2=NN(C(=O)c3ccc(Cl)cc3)C(c3ccco3)C2)cc1 (racemic) | 2720 |  | 

SMILES | IC50 [1] [nM] | half-life at 2 µM [2] [min] | IC50 [3] [nM]
O=C(Nc1ccc(C2=NN(C(=O)c3ccc(Br)cc3)C(c3ccccc3)C2)cc1)OC1CC1 (racemic) | 44.1 |  | 15100
CS(=O)(=O)Nc1ccc(C2=NN(C(=O)c3ccc(Br)cc3)C(c3ccco3)C2)cc1 (racemic) | 2470 | 2.9 | 
CC(C)OC(=O)Nc1ccc(C2=NN(C(=O)c3ccc(Br)cc3)C(c3ccccc3)C2)cc1 (racemic) | 4.4 | 120 | 881
COC(=O)Nc1ccc(C2=NN(C(=O)c3ccc(Br)cc3)C(c3ccccc3)C2)cc1 (racemic) | 2100 |  | 
CC(C)(C)OC(=O)Nc1ccc(C2=NN(C(=O)c3ccc(Br)cc3)C(c3ccncc3)C2)cc1 (racemic) | 2780 |  | 
COc1ccc(C(=O)N2N=C(c3ccc(NS(C)(=O)=O)cc3)CC2c2ccco2)cc1 (racemic) | 10100 |  | 
CC(C)OC(=O)c1ccc(C2=NN(C(=O)c3ccc(Br)cc3)C(c3ccccc3)C2)cc1 (racemic) | 110 |  | 4360
CC(C)(C)OC(=O)Nc1ccc(C2=NN(C(=O)c3ccc(Br)cc3)C(c3ccco3)C2)cc1 (racemic) | 1260 |  | 
C#CCCOC(=O)Nc1ccc(C2=NN(C(=O)c3ccc(Br)cc3)C(c3ccccc3)C2)cc1 (racemic) | 65 |  | 
CC(C)(C)OC(=O)Nc1ccc(C2=NN(C(=O)c3ccc(Br)cc3)C(c3cccnc3)C2)cc1 (racemic) | 1630 |  | 
Cc1ccc(C(=O)N2N=C(c3ccc(NC(=O)OC(C)(C)C)cc3)CC2c2ccco2)cc1 (racemic) | 3290 |  | 
CS(=O)(=O)Nc1ccc(C2=NN(C(=O)c3ccc([N+](=O)[O-])cc3)C(c3ccco3)C2)cc1 (racemic) | 1970 | 2.9 | 
CS(=O)(=O)Nc1ccc(C2=NN(C(=O)c3ccc(F)cc3)C(c3ccco3)C2)cc1 (racemic) | 12700 |  | 
CC(C)(C)OC(=O)Nc1ccc(C2=NN(C(=O)c3ccc(Br)cc3)C(c3ccccc3)C2c2ccccc2)cc1 (racemic) | 172 |  | 
CC1C(c2ccc(NC(=O)OC(C)(C)C)cc2)=NN(C(=O)c2ccc(Br)cc2)C1c1ccccc1 (racemic) | 27.4 |  | 
CC(C)(C)OC(=O)Nc1ccc(C2=NN(C(=O)c3ccc(Br)cc3)C(c3ccccn3)C2)cc1 (racemic) | 650 |  | 
C=CCOC(=O)Nc1ccc(C2=NN(C(=O)c3ccc(Br)cc3)C(c3ccccc3)C2)cc1 (racemic) | 31.8 |  | 8830
CC(C)(C)OC(=O)Nc1ccc(C2=NN(C(=O)c3ccc([N+](=O)[O-])cc3)C(c3ccccc3)C2)cc1 (racemic) | 439 | 120 | 
CC(C)OC(=O)Nc1ccc(C2=NN(C(=O)c3ccc(Br)cc3)C(c3ccccc3)C2C)cn1 (racemic) | 2 |  | 157
